Test results taken from the supplement of paper PMC10307832.

Experiments:
Assay in all cases: relative viability (nuclei count vs DMSO), 5 days (fraction); higher = more cells survive
[1] = compound: C1=CC=C2C(=C1)N=C(S2)C(C#N)C3=NC(=NC=C3)NCCC4=CN=CC=C4 + COc1cccc2cc(-c3nc([C@H]4CC[C@H](C(=O)O)CC4)n4ncnc(N)c34)[nH]c12 [OSI-027] (partner 0.5 µM)
Outline: (§1)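 Relative viability was taken as the ratio of nuclei in treated wells to nuclei in vehicle wells. Lung cancer cell lines in 1536-well plates received compounds by pin tool one day after seeding, either one drug alone or a fixed anchor-drug dose plus five library-drug doses (not always all listed) in √10 steps. Nuclei were counted on 4× images after 5 days of treatment, and values are medians of duplicate plates.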

NVP-TAE684 + Decitabine = compound: COc1cc(N2CCC(N3CCN(C)CC3)CC2)ccc1Nc1ncc(Cl)c(Nc2ccccc2S(=O)(=O)C(C)C)n1 [NVP-TAE684] + Nc1ncn([C@H]2C[C@H](O)[C@@H](CO)O2)c(=O)n1 [Decitabine] (partner 2 µM)
Outline: as §1

Vandetanib + Foretinib = compound: COc1cc2/c(=N/c3ccc(Br)cc3F)nc[nH]c2cc1OCC1CCN(C)CC1 [Vandetanib] + COc1cc2c(Oc3ccc(NC(=O)C4(C(=O)Nc5ccc(F)cc5)CC4)cc3F)ccnc2cc1OCCCN1CCOCC1 [Foretinib] (partner 0.25 µM)
Outline: as §1

Vandetanib + Pemetrexed = compound: COc1cc2/c(=N/c3ccc(Br)cc3F)nc[nH]c2cc1OCC1CCN(C)CC1 [Vandetanib] + Nc1nc2[nH]cc(CCc3ccc(C(=O)N[C@@H](CCC(=O)O)C(=O)O)cc3)c2c(=O)[nH]1 [Pemetrexed] (partner 0.2 µM)
Outline: as §1

Cell Line	relative viability ([1]; first compound 0.005 µM)	relative viability ([1]; first compound 0.01581 µM)	relative viability ([1]; first compound 0.05 µM)	relative viability ([1]; first compound 0.1581 µM)	relative viability ([1]; first compound 0.5 µM)	relative viability (NVP-TAE684 + Decitabine; first compound 0.6325 µM)	relative viability (NVP-TAE684 + Decitabine; first compound 2 µM)	relative viability (Vandetanib + Foretinib; first compound 0.02 µM)	relative viability (Vandetanib + Foretinib; first compound 0.06325 µM)	relative viability (Vandetanib + Foretinib; first compound 0.2 µM)	relative viability (Vandetanib + Foretinib; first compound 0.6325 µM)	relative viability (Vandetanib + Foretinib; first compound 2 µM)	relative viability (Vandetanib + Pemetrexed; first compound 0.02 µM)	relative viability (Vandetanib + Pemetrexed; first compound 0.06325 µM)	relative viability (Vandetanib + Pemetrexed; first compound 0.2 µM)	relative viability (Vandetanib + Pemetrexed; first compound 0.6325 µM)	relative viability (Vandetanib + Pemetrexed; first compound 2 µM)	relative viability (NVP-TAE684 + Decitabine; first compound 0.2 µM)
201T	0.935	0.696	0.7	0.833	0.779	0.867	0.684	1.08	0.996	1.06	1.15	1	0.345	0.34	0.328	0.338	0.306	–
A549	–	–	–	–	–	0.248	0.286	1.05	0.961	0.992	0.987	0.854	–	–	–	–	–	–
A-427	0.481	0.467	0.442	0.475	0.39	0.53	0.44	1.03	1.05	1.1	0.977	1.05	0.907	1	1.06	0.986	0.927	0.58
ABC-1	0.592	0.407	0.51	0.606	0.517	0.938	0.679	0.971	1.03	0.28	1	0.854	–	–	–	–	–	1.14
BEN	0.427	0.283	0.274	0.625	0.587	0.622	0.643	0.601	0.517	0.499	0.61	0.62	0.725	0.67	0.635	0.714	0.516	–
CAL-12T	0.811	0.536	0.525	0.534	0.427	–	–	1.13	1.05	0.217	1.31	0.552	1.14	1.2	1.32	1.18	1.17	–
COR-L23	0.369	0.839	0.716	0.985	0.511	0.339	0.252	0.968	1.01	0.942	0.923	0.995	0.179	0.197	0.223	0.21	0.187	0.415
COR-L 105	0.576	0.556	0.71	0.768	0.547	0.701	0.429	0.91	1.11	0.329	0.533	0.358	1.17	1.13	1.09	1.07	0.843	0.681
Calu-6	–	–	–	–	–	–	–	0.809	0.86	0.902	0.853	0.856	–	–	–	–	–	–
ChaGo-K-1	–	0.491	0.616	0.587	0.452	0.52	0.427	0.958	0.962	0.939	0.936	0.905	0.257	0.271	0.259	0.255	0.263	0.536
EBC-1	–	–	–	–	–	–	–	0.0974	0.0982	0.108	0.0939	0.0987	–	–	–	–	–	–
EKVX	0.736	0.909	0.681	0.69	0.659	0.354	0.325	0.821	0.695	0.795	0.794	1.17	0.385	0.373	0.459	0.349	0.363	0.317
EMC-BAC-2	0.364	0.37	0.38	0.394	0.366	0.946	0.708	0.996	0.934	0.307	0.965	0.958	0.473	0.44	0.448	0.427	0.459	0.978
EPLC-272H	0.217	0.264	0.254	0.257	0.301	0.357	0.299	0.592	–	0.708	0.708	0.474	0.447	0.299	0.399	0.341	0.287	0.326
H3255	0.732	0.596	0.608	0.581	0.702	0.547	0.506	0.904	0.824	0.858	0.689	0.345	0.566	0.482	0.49	0.444	0.357	0.582
HARA	0.602	0.373	0.493	0.464	0.472	0.55	0.234	0.889	0.753	0.36	0.89	0.735	0.246	0.239	0.243	0.203	0.213	0.664
HCC-15	0.558	0.644	0.722	0.863	0.531	0.524	0.484	1.05	0.96	0.577	1.04	0.973	0.229	0.226	0.235	0.238	0.225	0.582
HCC-44	0.421	–	0.566	0.531	0.47	0.955	0.876	–	–	–	–	–	0.606	0.699	0.684	0.657	0.635	0.946
HCC-78	0.367	0.35	0.332	0.438	0.36	0.634	0.49	0.546	0.606	0.524	0.57	0.432	0.88	0.889	0.893	0.873	0.901	0.636
HCC-366	0.482	0.961	0.856	1.05	0.672	0.401	0.315	1.02	0.941	0.501	0.893	0.907	0.128	0.149	0.155	0.17	0.176	0.37
HCC-827	0.617	1.11	0.854	0.978	0.783	0.279	0.311	1.07	1	0.706	0.296	0.169	0.245	0.241	0.263	0.173	0.171	0.301

Cell Line	relative viability ([1]; first compound 0.005 µM)	relative viability ([1]; first compound 0.01581 µM)	relative viability ([1]; first compound 0.05 µM)	relative viability ([1]; first compound 0.1581 µM)	relative viability ([1]; first compound 0.5 µM)	relative viability (NVP-TAE684 + Decitabine; first compound 0.6325 µM)	relative viability (NVP-TAE684 + Decitabine; first compound 2 µM)	relative viability (Vandetanib + Foretinib; first compound 0.02 µM)	relative viability (Vandetanib + Foretinib; first compound 0.06325 µM)	relative viability (Vandetanib + Foretinib; first compound 0.2 µM)	relative viability (Vandetanib + Foretinib; first compound 0.6325 µM)	relative viability (Vandetanib + Foretinib; first compound 2 µM)	relative viability (Vandetanib + Pemetrexed; first compound 0.02 µM)	relative viability (Vandetanib + Pemetrexed; first compound 0.06325 µM)	relative viability (Vandetanib + Pemetrexed; first compound 0.2 µM)	relative viability (Vandetanib + Pemetrexed; first compound 0.6325 µM)	relative viability (Vandetanib + Pemetrexed; first compound 2 µM)	relative viability (NVP-TAE684 + Decitabine; first compound 0.2 µM)
HOP-62	0.669	0.828	0.762	0.989	0.793	0.236	0.266	1.04	1.02	0.562	1.11	1.02	0.325	0.358	0.438	0.299	0.291	0.242
IA-LM	–	–	–	–	–	–	–	1.32	0.981	1.11	1.33	1.12	–	–	–	–	–	–
LC-2-ad	0.724	0.803	0.912	0.875	0.695	0.78	0.606	1	0.854	0.939	0.801	0.656	0.257	0.278	0.273	0.259	0.264	0.754
LCLC-97TM1	0.562	0.701	0.537	0.607	0.572	0.184	0.153	1	0.904	0.997	0.942	0.868	0.18	0.184	0.166	0.181	0.181	0.208
LCLC-103H	0.387	0.521	0.41	0.505	0.397	0.69	0.683	0.864	0.786	0.679	0.899	0.714	0.497	0.493	0.478	0.48	0.5	0.7
LK-2	0.2	0.187	0.201	0.189	0.195	0.205	0.146	1.19	1.16	0.88	1.22	1.08	0.259	0.228	0.284	0.276	0.245	0.24
LOU-NH91	0.673	0.689	0.703	0.733	0.729	0.782	0.645	0.972	0.807	0.787	0.713	0.578	0.413	0.381	0.391	0.442	0.431	0.801
LU99A	0.269	0.278	0.297	0.323	0.3	–	0.496	0.842	0.757	0.878	0.783	0.823	0.172	0.191	0.197	0.21	0.187	0.97
LXF-289	0.515	0.863	0.797	0.846	0.589	0.384	0.267	1.01	0.954	0.978	0.968	0.937	0.916	0.949	0.885	0.909	0.889	0.433
NCI-H23	0.566	0.552	0.474	0.601	0.614	0.322	0.241	0.917	1	0.304	0.947	0.898	0.605	0.655	0.634	0.631	0.666	0.31
NCI-H322M	0.515	0.463	0.529	0.585	0.685	0.619	0.526	0.983	0.889	0.959	0.841	0.674	0.579	0.615	0.641	0.604	0.51	0.658
NCI-H358	0.726	0.749	0.805	0.913	0.739	0.197	0.0907	0.657	0.716	0.649	0.646	0.332	0.173	0.17	0.17	0.165	0.162	0.198
NCI-H522	0.674	0.681	0.717	0.713	0.685	0.731	0.66	–	–	–	–	–	0.941	1.02	0.957	1.25	0.999	0.604
NCI-H727	0.814	0.526	0.568	0.748	0.508	0.771	0.552	0.973	0.831	0.539	1.18	0.674	–	–	–	–	–	0.836
NCI-H1299	–	–	–	–	–	–	–	1.11	1.03	1.12	1.12	1.1	–	–	–	–	–	–
NCI-H1563	0.643	0.744	0.705	0.838	0.618	–	–	0.959	0.96	0.885	0.806	0.866	0.75	0.732	0.755	0.678	0.755	–
NCI-H1623	0.488	0.386	0.397	0.553	0.345	–	–	0.913	0.829	0.8	0.827	0.764	–	–	–	–	–	–
NCI-H1648	0.238	0.239	0.289	0.26	0.28	0.449	0.27	–	–	–	–	–	0.568	0.691	0.652	0.995	0.714	0.39
NCI-H1703	–	–	–	–	–	–	–	0.338	0.346	0.42	0.328	0.339	–	–	–	–	–	–
NCI-H1792	0.648	0.64	0.759	1.16	0.36	0.558	0.309	–	–	–	–	–	0.834	0.733	0.733	0.822	0.771	0.359
NCI-H2228	0.404	0.556	0.561	0.578	0.492	–	–	0.92	0.625	0.167	0.803	0.822	0.284	0.337	0.337	0.343	0.292	–
